Laboratory results from article PMC6270601, “Dimeric Labdane Diterpenes: Synthesis and Antiproliferative Effects” (Molecules, 2013).

Tests used:
[1] = tested on: AGS cells; experiment: Antiproliferative assay (MTT reduction), AGS gastric adenocarcinoma cells; assay type: cell-based, human; details: Homo sapiens, 72 h; AGS gastric adenocarcinoma; 3 days treatment, MTT reduction; mean ± SD; >100 µM considered inactive
Method: (§1) The compounds 1–20 were assessed for antiproliferative effect towards human lung fibroblasts (MRC-5) and the following human tumor cell lines: gastric adenocarcinoma (AGS), lung cancer cells (SK-MES-1), bladder carcinoma (J82) and promyelocytic leukemia (HL-60).
(§2) All human cell lines used in this work were purchased from the American Type Culture Collection (ATCC, Manasas, VA, USA). Normal lung MRC-5 fibroblasts (CCL-171), SK-MES-1 lung cancer cells (HTB-58) and J82 bladder carcinoma cells (HTB-1) were grown as monolayers in minimum essential Eagle medium (MEM) with Earles’s salts, 2 mM L-glutamine and 1.5 g/L sodium bicarbonate. Gastric adenocarcinoma AGS cells (CRL-1739) were grown as monolayers in Ham F-12 medium containing 1 mM L-glutamine and 1.5 g/L sodium bicarbonate. Promyelocytic leukemia HL-60 cells (CCL-240) were grown in suspension in RPM1 medium containing 1 mM sodium pyruvate and 2.0 g/L sodium bicarbonate. All media were supplemented with 10% heat-inactivated FBS, 100 IU/mL penicillin and 100 µg/mL streptomycin. Cells were grown in a humidified incubator with 5% CO2 in air at 37 °C. For the antiproliferative assay, adherent cells were plated at a density of 5 × 10^4 cells/mL and HL-60 cells at 30 × 10^4 cells/mL. Cells were seeded in 96-well plates (100 µL/well). One day after seeding, cells were treated with medium containing the compounds at concentrations ranging from 0 up to 100 µM during 3 days. The compounds were dissolved in DMSO (1% final concentration) and complete medium. Untreated cells (medium containing 1% DMSO) were used as 100% viability controls. […] Each concentration was tested in sextuplicate and experiments were repeated 2 times. Cell viability was determined by means of the MTT reduction assay at the end of the incubation with the products. The results were transformed to percentage of controls and the IC50 values were graphically obtained from the dose-response curves.

[2] = tested on: MRC-5 normal fibroblasts; experiment: Antiproliferative assay (MTT reduction), MRC-5 normal lung fibroblasts; assay type: cell-based, human; details: Homo sapiens, MRC5, 72 h; MRC-5 normal fibroblasts; 3 days treatment, MTT reduction; mean ± SD; >100 µM considered inactive
Method: as §2, with “Normal lung MRC-5 fibroblasts (CCL-171), SK-MES-1 lung cancer cells (HTB-58) and J82 bladder carcinoma cells (HTB-1) were grown as monolayers in minimum essential Eagle medium (MEM) with Earles’s salts, 2 mM L-glutamine and 1.5 g/L sodium bicarbonate. Gastric adenocarcinoma AGS cells (CRL-1739) were grown as monolayers in Ham F-12 medium containing 1 mM L-glutamine and 1.5 g/L sodium bicarbonate.” left out, “products.” for “products. The results were transformed to percentage of controls and the IC50 values were graphically obtained from the dose-response curves.”

[3] = tested on: MRC-5, AGS, SK-MES-1, J82 and HL-60 cell lines; experiment: Antiproliferative assay, panel of five human cell lines (summary in words); assay type: cell-based; details: SK-MES-1, J82, HL-60, up to 100 µM
Method: as §1, §2

[4] = tested on: SK-MES-1 lung cancer cells; experiment: Antiproliferative assay (MTT reduction), SK-MES-1 lung cancer cells; assay type: cell-based, human; details: Homo sapiens, 72 h; SK-MES-1 lung cancer cells; 3 days treatment, MTT reduction; mean ± SD; >100 µM considered inactive
Method: as §2, with “Normal lung MRC-5 fibroblasts (CCL-171), SK-MES-1 lung cancer cells (HTB-58) and J82 bladder carcinoma cells (HTB-1) were grown as monolayers in minimum essential Eagle medium (MEM) with Earles’s salts, 2 mM L-glutamine and 1.5 g/L sodium bicarbonate. Gastric adenocarcinoma AGS cells (CRL-1739) were grown as monolayers in Ham F-12 medium containing 1 mM L-glutamine and 1.5 g/L sodium bicarbonate.” left out, “products.” for “products. The results were transformed to percentage of controls and the IC50 values were graphically obtained from the dose-response curves.”

[5] = tested on: HL-60 cells; experiment: Antiproliferative assay (MTT reduction), HL-60 promyelocytic leukemia cells; assay type: cell-based, human; details: Homo sapiens, 72 h; HL-60 promyelocytic leukemia; 3 days treatment, MTT reduction; mean ± SD; >100 µM considered inactive
Method: as §2, with “Normal lung MRC-5 fibroblasts (CCL-171), SK-MES-1 lung cancer cells (HTB-58) and J82 bladder carcinoma cells (HTB-1) were grown as monolayers in minimum essential Eagle medium (MEM) with Earles’s salts, 2 mM L-glutamine and 1.5 g/L sodium bicarbonate. Gastric adenocarcinoma AGS cells (CRL-1739) were grown as monolayers in Ham F-12 medium containing 1 mM L-glutamine and 1.5 g/L sodium bicarbonate.” left out, “products.” for “products. The results were transformed to percentage of controls and the IC50 values were graphically obtained from the dose-response curves.”

[6] = tested on: J82 bladder carcinoma cells; experiment: Antiproliferative assay (MTT reduction), J82 bladder carcinoma cells; assay type: cell-based, human; details: Homo sapiens, 72 h; J82 bladder carcinoma; 3 days treatment, MTT reduction; mean ± SD; >100 µM considered inactive
Method: as §2, with “Normal lung MRC-5 fibroblasts (CCL-171), SK-MES-1 lung cancer cells (HTB-58) and J82 bladder carcinoma cells (HTB-1) were grown as monolayers in minimum essential Eagle medium (MEM) with Earles’s salts, 2 mM L-glutamine and 1.5 g/L sodium bicarbonate. Gastric adenocarcinoma AGS cells (CRL-1739) were grown as monolayers in Ham F-12 medium containing 1 mM L-glutamine and 1.5 g/L sodium bicarbonate.” left out, “products.” for “products. The results were transformed to percentage of controls and the IC50 values were graphically obtained from the dose-response curves.”

IC50 [1] | IC50 [4] | IC50 [5] | IC50 [6] | Structure (SMILES) | IC50 [2] | antiproliferative effect on the five cell lines (in words) [3]
> 100 µM | > 100 µM | > 100 µM | > 100 µM | C=C1CCC2[C@](C)(CCC[C@]2(C)C(=O)OC)[C@H]1CC[C@@H](C)CCn1cc(CCC(=O)O)nn1 (stereo partly drawn) [Compound 6, 15-(4-(2-Carboxyethyl)-1H-1,2,3-triazol-1-yl)-imbricatolic acid methyl ester] | > 100 µM | no antiproliferative effect on any of the cell lines
> 100 µM | > 100 µM | > 100 µM | > 100 µM | C=C1CCC2[C@](C)(CCC[C@]2(C)C(=O)OC)[C@H]1CC[C@@H](C)CCOCC[C@H](C)CC[C@H]1C(=C)CCC2[C@]1(C)CCC[C@]2(C)C(=O)OC (stereo partly drawn) [Compound 7] | > 100 µM | no antiproliferative effect
